Columns and labels:
[1] = Distribution of 14C label in soybean plant parts after seed treatment
Experimental: ^14C-radiolabelled compounds are obtained from Lew Mander (Australian National University). ^14C-GA3 is dissolved in water:ethanol, 80:20, v/v; ^14C-GA9 and ^14C-GA12 are dissolved in 100% ethanol. Seeds of Asgrow 3237 soybeans are treated separately with solutions of each of the ^14C-radiolabelled compounds (1.7-6.8 μg; 10-40 ppm; 111,000-2,000,000 dpm/seed) by placing one to four μl of the dosing solution directly on the seed coat (^14C-GA3, GA9, and GA12), or on the hilum portion of the seed (^14C-GA3). After evaporation of the carrier solvent (approx. one hour), the treated seed is planted in containers containing approximately 30 gm of Metromix-350, and transferred to a growth chamber. Plants are grown under a 12 hour light/12 hour dark regime at 92° F. (33° C.)and 75% humidity. The pattern of uptake and translocation of ^14C-radioactivity in treated seed is monitored up to 12 days past initial treatment. For most experiments, three replicate plants are harvested at one hour after treatment, one day after treatment (DAT), two DAT, three DAT, six or seven DAT, and 12 DAT. At the time of each harvest, plants are divided into leaves, epicotyl, cotyledon, hypocotyl, and roots. The level of ^14C-radioactivity in different plant parts is determined by extraction of plant tissues with aqueous methanol and scintillation counting. The extent of metabolism of the ^14C-labelled GA compounds in planta is determined by HPLC analysis of plant extracts. The details are as follows.
The general extraction procedure consisted of blending the plant parts in a high speed polytron tissue homogenizer for 1-5 minutes with 10-20 ml of ice-cold methanol:water, 80:20, v/v, followed by vacuum filtration through a Whatman glass fiber filter. The filter cake is re-extracted as necessary using the procedure described above until an insignificant amount of radioactivity is removed. Prior to combining the extracts from each sample, aliquots are weighed and analyzed by liquid scintillation counting (LSC) to determine the amount of extracted radioactivity in each extract. Aliquots of the air-dried filter cakes are combusted and analyzed by LSC in order to determine the amount of non-extracted radioactivity. The extracts are combined and, when necessary, concentrated by rotary evaporation at a bath temperature of less than 35° C. to a small volume for analysis by HPLC to determine the extent of metabolism of the ^14C-labelled GA compounds in planta.

[2] = system: transgenic line 719 soybean; experiment: Field trial of seed coatings under soil compaction / different soils, GA-deficient soybean; assay type: in vivo, Glycine max; conditions: for Count (emergence) / Dwarfs (number of dwarfs not rescued) / Dwarfs (number not rescued): Line 719
[3] = system: constitutively GA-deficient transgenic dwarf soybean line 719; experiment: Field trial of seed coating application rates, GA-deficient soybean; assay type: in vivo, Glycine max; conditions: for 719 Height, cm, Heavy soil / 719 Height, cm, Light soil / No. 719 Emerged, Heavy soil / No. 719 Emerged, Light soil / No. 719 Not Rescued, Heavy soil / No. 719 Not Rescued, Light soil: seed coating
Outline: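 GA compounds seed-coated at 0–100 μg/seed (GA12 also 50 μg/seed), acetone carrier, versus untreated dry seed. Sown in light and heavy soil, drip-irrigated, three replicates in randomized blocks. Emergence, unrescued dwarfs, plant height and uniformity scored; LSD at 0.05.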

[4] = Heavy soil - loose, target rate 2.0 μg/seed, Table 22
[5] = Heavy soil - loose, target rate 8.0 μg/seed, Table 22
[6] = Light soil - Compacted, target rate 2.0 μg/seed, Table 22
[7] = Light soil - Compacted, target rate 8.0 μg/seed, Table 22
[8] = Light soil - Loose, target rate 2.0 μg/seed, Table 24
[9] = Light soil - Loose, target rate 8.0 μg/seed, Table 24
[10] = Light soil - Loose, target rate 16.0 μg/seed, Table 24
[11] = Light soil - compacted, target rate 2.0 μg/seed, Table 24
[12] = Light soil - compacted, target rate 8.0 μg/seed, Table 24
[13] = Light soil - compacted, target rate 16.0 μg/seed, Table 24

Compound: C=C1C[C@]23C[C@H]1CC[C@H]2[C@@]12CCC[C@@](C)(C(=O)O1)[C@H]2[C@@H]3C(=O)O [GA9]
- ^14C Label Distribution (% of dose), Cotyledon ([1]; 3 DAP): 60 % of dose
- ^14C Label Distribution (% of dose), Hypocotyl ([1]; 3 DAP): 6.8 % of dose
- ^14C Label Distribution (% of dose), Root ([1]; 3 DAP): 1.3 % of dose
- ^14C Label Distribution (% of dose), Cotyledon ([1]; 12 DAP): 54 % of dose
- ^14C Label Distribution (% of dose), Epicotyl ([1]; 12 DAP): 0.1 % of dose
- ^14C Label Distribution (% of dose), Hypocotyl ([1]; 12 DAP): 1.0 % of dose
- ^14C Label Distribution (% of dose), Leaves ([1]; 12 DAP): 0.3 % of dose
- ^14C Label Distribution (% of dose), Root ([1]; 12 DAP): 1.0 % of dose
- % Emergence, Heavy Soil-Loose ([2]; 3.1 μg/seed): 103%
- % Emergence, Light Soil-Compact ([2]; 3.1 μg/seed): 103%
- % Rescue, Heavy Soil-Loose ([2]; 3.1 μg/seed): 80%
- % Rescue, Light Soil-Compact ([2]; 3.1 μg/seed): 91%
- % Emergence, Heavy Soil-Loose ([2]; 4.9 μg/seed): 91%
- % Emergence, Light Soil-Compact ([2]; 4.9 μg/seed): 73%
- % Rescue, Heavy Soil-Loose ([2]; 4.9 μg/seed): 93%
- % Rescue, Light Soil-Compact ([2]; 4.9 μg/seed): 100%
- Count (emergence) [2, 4]: 42 a
- Dwarfs (number of dwarfs not rescued) [2, 4]: 2.0 cde
- Count (emergence) [2, 5]: 35 abc
- Dwarfs (number of dwarfs not rescued) [2, 5]: 0.7 cde
- Count (emergence) [2, 6]: 38 abc
- Dwarfs (number of dwarfs not rescued) [2, 6]: 0.7 cd
- Count (emergence) [2, 7]: 27 b-f
- Dwarfs (number of dwarfs not rescued) [2, 7]: 0 days
- Count (emergence) [2, 8]: 48.0 a
- Dwarfs (number not rescued) [2, 8]: 2.3 e
- Count (emergence) [2, 9]: 49.0 a
- Dwarfs (number not rescued) [2, 9]: 0 e
- Count (emergence) [2, 10]: 45.0 ab
- Dwarfs (number not rescued) [2, 10]: 0 e
- Count (emergence) [2, 11]: 38.3 abc
- Dwarfs (number not rescued) [2, 11]: 0.7 cd
- Count (emergence) [2, 12]: 27.3 b-f
- Dwarfs (number not rescued) [2, 12]: 0
- Count (emergence) [2, 13]: 29.7 a-f
- Dwarfs (number not rescued) [2, 13]: 0
- rank of potential for rescuing GA-deficient dwarf soybeans without decreasing emergence ([2]; based on the last two field trials): GA9>GA5>GA3-3-acetate>GA3>GA12
- best to least selectivity order ([2]; emergence under soil compaction, margin of selectivity, rescue without overelongation, Table 22): GA9>GA5>GA3-3-acetate>GA3
- 719 Height, cm, Heavy soil ([3]; 10 μg compound per seed): 4.0 d-i cm
- 719 Height, cm, Light soil ([3]; 10 μg compound per seed): 5.0 efg cm
- No. 719 Emerged, Heavy soil ([3]; 10 μg compound per seed): 16.3 b-e
- No. 719 Emerged, Light soil ([3]; 10 μg compound per seed): 21.7 ab
- No. 719 Not Rescued, Heavy soil ([3]; 10 μg compound per seed): 0.7 ef
- No. 719 Not Rescued, Light soil ([3]; 10 μg compound per seed): 0.3
- 719 Height, cm, Heavy soil ([3]; 100 μg compound per seed): 8.3 ab cm
- 719 Height, cm, Light soil ([3]; 100 μg compound per seed): 10.3 cd cm
- No. 719 Emerged, Heavy soil ([3]; 100 μg compound per seed): 20.3 a-d
- No. 719 Emerged, Light soil ([3]; 100 μg compound per seed): 19.0 a-e
- No. 719 Not Rescued, Heavy soil ([3]; 100 μg compound per seed): 0 f
- No. 719 Not Rescued, Light soil ([3]; 100 μg compound per seed): 0
- appearance of line 719 seedlings ([3]; 0.1 and 1 μg per seed): appeared unusually abnormal
